Reference: US9150569B2, “Nitrogen-containing heterocyclic compound having inhibitory effect on production of kynurenine” (KYOWA HAKKO KIRIN CO., LTD., priority 2010, dated 2015)

System: production of kynurenine in KATO-III cells
Test: Inhibitory activity on the production of kynurenine (IFN-γ-treated KATO-III cells, kynurenine in the culture medium quantified by absorbance at 480 nm)
Format: cell-based
Details: test compound at 10 μmol/L, human gastric cancer cell line KATO-III, 96 hours, read-out: inhibition rate (production of kynurenine)
Method: This assay was performed by a modification of the method described in J. Biol. Chem., vol. 263, pp. 2041-2048 (1988). For culture of the human gastric cancer cell line KATO-III, RPMI 1640 (GIBCO, 11875) supplemented with 10 volt FBS (GIBCO, 10091-148, lot. 665285) was used. One μL of a test substance in a DMSO solution was diluted with 199 μL of the culture medium and placed in wells of a 384-well plate (10 μL/well). Next, IFN-γ (Sigma, 1-3265) was added to the culture medium to a concentration of 31.25 ng/mL, and KATO-III cells were suspended at 50,000 cells/mL in the culture medium. Forty μL of the suspension was added to each well (2,000 cells/well) and incubated under a 5% CO2 atmosphere at 37° C. for 96 hours. The final concentration of DMSO was limited to 0.1 volt or less so that DMSO itself may not affect the kynurenine concentration measured by this assay. After the incubation, 10 μL of a 30 w/vt aqueous trichloroacetic acid solution was added to each well, and incubation was performed at 65° C. for 30 minutes. The plate was centrifuged at 2,500×g for 5 minutes and 15μL of the supernatant in each well was transferred into another 384-well plate. To the transferred supernatant, 15 μL of a 2 w/vt solution of p-dimethylaminobenzaldehyde in acetic acid was added, incubation was performed at 65° C. for 20 minutes and the absorbance was measured at 480 nm.
Sample: the absorbance value of the well to which a DMSO solution containing a test substance was added and in which the cells were treated with IFN-γ.
Blank: the absorbance value of the well to which DMSO not containing a test substance was added and in which the cells were treated with IFN-γ.
Control: the absorbance value of the well to which DMSO not containing a test substance was added and in which the cells were not treated with IFN-γ.
In this assay, expression of IDO in KATO-III cells is induced by IFN-γ treatment and kynurenine in the culture medium is quantified. The kynurenine concentration in a culture medium is known to increase in proportion to the enzymatic activity of intracellular IDO (for example, J. Biol. Chem., vol. 263, pp. 2041-2048 ([…])). […] The production of kynurenine is known to be inhibited by IDO inhibitors (for example, J. Clin. Invest., vol. 117, No. 5, pp. 1147-1154 […]), and thus it is speculated that Compounds (I) also have an inhibitory effect on IDO.

SMILES	inhibition at 10 µM
CCCS(=O)(=O)Nc1nc2ccccc2nc1OC(c1cccnc1)C(C)(C)C (stereo not shown) [Compound 3, N-(3-(2,2-dimethyl-1-(pyridin-3-yl)propoxy)quinoxalin-2-yl) propane-1-sulfonamide]	≥ 80%
CCCS(=O)(=O)Nc1nc2ccccc2nc1OC(c1ccc[n+]([O-])c1)C(C)(C)C (stereo not shown) [Compound 4, 3-(2,2-dimethyl-1-(3-(propylsulfonamido)quinoxalin-2-yloxy)propyl)pyridine 1-oxide]	≥ 80%
CCCS(=O)(=O)Nc1nc2ccccc2nc1OC(c1ccc[n+]([O-])c1)C1CC1 (stereo not shown) [Compound 6, 3-(cyclopropyl(3-(propylsulfonamido)quinoxalin-2-yloxy)methyl)pyridine 1-oxide]	≥ 80%
CCCS(=O)(=O)Nc1nc2ccccc2nc1OC(c1cccnc1)C(C)(C)F (stereo not shown) [Compound 7, N-(3-(2-fluoro-2-methyl-1-(pyridin-3-yl)propoxy)quinoxalin-2-yl)propane-1-sulfonamide]	≥ 80%
CCCS(=O)(=O)Nc1nc2ccccc2nc1OC(c1ccc[n+]([O-])c1)C(C)(C)F (stereo not shown) [Compound 8, 3-(2-fluoro-2-methyl-1-(3-(propylsulfonamido)quinoxalin-2-yloxy)propyl)pyridine 1-oxide]	≥ 80%
CCCCC(Oc1nc2ccccc2nc1NS(=O)(=O)CCC)c1cccnc1 (stereo not shown) [Compound 11, N-(3-(1-(pyridin-3-yl)pentyloxy)quinoxalin-2-yl)propane-1-sulfonamide]	≥ 80%
CCCCC(Oc1nc2ccccc2nc1NS(=O)(=O)CCC)c1ccc[n+]([O-])c1 (stereo not shown) [Compound 12, 3-(1-(3-(propylsulfonamido)quinoxalin-2-yloxy)pentyl)pyridine 1-oxide]	≥ 80%
CCCS(=O)(=O)Nc1nc2ccccc2nc1OC(c1cccnc1)C1(C)CC1 (stereo not shown) [Compound 13, N-(3-((1-methylcyclopropyl)(pyridin-3-yl)methoxy)quinoxalin-2-yl)propane-1-sulfonamide]	≥ 80%
CCCS(=O)(=O)Nc1nc2ccccc2nc1OC(c1ccc[n+]([O-])c1)C1(C)CC1 (stereo not shown) [Compound 14, 3-((1-methylcyclopropyl)(3-(propylsulfonamido)quinoxalin-2-yloxy)methyl)pyridine 1-oxide]	≥ 80%
CCCS(=O)(=O)Nc1nc2ccccc2nc1OC(CC)c1cccnc1 (stereo not shown) [Compound 15, N-(3-(1-(pyridin-3-yl)propoxy)quinoxalin-2-yl)propane-1-sulfonamide]	≥ 80%
CCCS(=O)(=O)Nc1nc2ccccc2nc1OC(CC)c1ccc[n+]([O-])c1 (stereo not shown) [Compound 16, 3-(1-(3-(propylsulfonamido)quinoxalin-2-yloxy)propyl)pyridine 1-oxide]	≥ 80%
CCCS(=O)(=O)Nc1nc2ccccc2nc1OC(c1cccnc1)C(F)F (stereo not shown) [Compound 17, N-(3-(2,2-difluoro-1-(pyridin-3-yl)ethoxy)quinoxalin-2-yl) propane-1-sulfonamide]	≥ 80%
CCCS(=O)(=O)Nc1nc2ccccc2nc1OC(C)c1cccnc1 (stereo not shown) [Compound 19, N-(3-(1-(pyridin-3-yl)ethoxy)quinoxalin-2-yl)propane-1-sulfonamide]	≥ 80%
CCCC(Oc1nc2ccccc2nc1NS(=O)(=O)CCC)c1cccnc1 (stereo not shown) [Compound 21, N-(3-(1-(pyridin-3-yl)butoxy)quinoxalin-2-yl)propane-1-sulfonamide]	≥ 80%
CCCC(Oc1nc2ccccc2nc1NS(=O)(=O)CCC)c1ccc[n+]([O-])c1 (stereo not shown) [Compound 22, 3-(1-(3-(propylsulfonamido)quinoxalin-2-yloxy)butyl)pyridine 1-oxide]	≥ 80%
CCCS(=O)(=O)Nc1nc2ccccc2nc1OC(c1ccccc1)c1cccnc1 (stereo not shown) [Compound 23, N-(3-(phenyl(pyridin-3-yl)methoxy)quinoxalin-2-yl)propane-1-sulfonamide]	≥ 80%
CCCS(=O)(=O)Nc1nc2ccccc2nc1OC(c1ccccc1)c1ccc[n+]([O-])c1 (stereo not shown) [Compound 24, 3-(phenyl(3-(propylsulfonamido)quinoxalin-2-yloxy)methyl)pyridine 1-oxide]	≥ 80%
CCCS(=O)(=O)Nc1nc2ccccc2nc1OC(c1ccc(S(C)(=O)=O)cc1)C(F)(F)F (stereo not shown) [Compound 25, N-(3-(2,2,2-trifluoro-1-(4-(methylsulfonyl)phenyl)ethoxy)quinoxalin-2-yl)propane-1-sulfonamide]	≥ 80%
CCCS(=O)(=O)Nc1nc2ccccc2nc1OC(c1ccc(C#N)nc1)C(F)(F)F (stereo not shown) [Compound 26, N-(3-(1-(6-cyanopyridin-3-yl)-2,2,2-trifluoroethoxy)quinoxalin-2-yl)propane-1-sulfonamide]	≥ 80%
CCCS(=O)(=O)Nc1nc2ccccc2nc1OC(c1ccc2nccn2c1)C(F)(F)F (stereo not shown) [Compound 27, N-(3-(2,2,2-trifluoro-1-(imidazo[1,2-a]pyridin-6-yl)ethoxy)quinoxalin-2-yl)propane-1-sulfonamide]	≥ 80%
CCCCS(=O)(=O)Nc1nc2ccccc2nc1OC(c1ccc2nccn2c1)C(F)(F)F (stereo not shown) [Compound 28, N-(3-(2,2,2-trifluoro-1-(imidazo[1,2-a]pyridin-6-yl)ethoxy)quinoxalin-2-yl)butane-1-sulfonamide]	≥ 80%
CC(C)CS(=O)(=O)Nc1nc2ccccc2nc1OC(c1ccc2nccn2c1)C(F)(F)F (stereo not shown) [Compound 29, 2-methyl-N-(3-(2,2,2-trifluoro-1-(imidazo[1,2-a]pyridin-6-yl)ethoxy)quinoxalin-2-yl)propane-1-sulfonamide]	≥ 80%
O=S(=O)(CC1CC1)Nc1nc2ccccc2nc1OC(c1ccc2nccn2c1)C(F)(F)F (stereo not shown) [Compound 30, 1-cyclopropyl-N-(3-(2,2,2-trifluoro-1-(imidazo[1,2-a]pyridin-6-yl)ethoxy)quinoxalin-2-yl)methanesulfonamide]	≥ 80%
CCCS(=O)(=O)Nc1nc2ccccc2nc1OC(c1ccc(CO)nc1)C(F)(F)F (stereo not shown) [Compound 31, N-(3-(2,2,2-trifluoro-1-(6-(hydroxymethyl)pyridin-3-yl)ethoxy)quinoxalin-2-yl)propane-1-sulfonamide]	≥ 80%
CCCS(=O)(=O)Nc1nc2ccccc2nc1OC(c1ccc(-c2cnn(C)c2)nc1)C(F)(F)F (stereo not shown) [Compound 32, N-(3-(2,2,2-trifluoro-1-(6-(1-methyl-1H-pyrazol-4-yl)pyridin-3-yl)ethoxy)quinoxalin-2-yl)propane-1-sulfonamide]	≥ 80%
CCCCS(=O)(=O)Nc1nc2ccccc2nc1OC(c1ccc(-c2cnn(C)c2)nc1)C(F)(F)F (stereo not shown) [Compound 33, N-(3-(2,2,2-trifluoro-1-(6-(1-methyl-1H-pyrazol-4-yl)pyridin-3-yl)ethoxy)quinoxalin-2-yl)butane-1-sulfonamide]	≥ 80%
CCCCS(=O)(=O)Nc1nc2ccccc2nc1OC(c1ccc(S(C)(=O)=O)nc1)C(F)(F)F (stereo not shown) [Compound 40, N-(3-(2,2,2-trifluoro-1-(6-(methylsulfonyl)pyridin-3-yl)ethoxy)quinoxalin-2-yl)butane-1-sulfonamide]	≥ 80%
CCCCS(=O)(=O)Nc1nc2ccccc2nc1OC(c1ccc([S+](C)[O-])nc1)C(F)(F)F (stereo not shown) [Compound 41, N-(3-(2,2,2-trifluoro-1-(6-(methylsulfinyl)pyridin-3-yl)ethoxy)quinoxalin-2-yl)butane-1-sulfonamide]	≥ 80%
